Drawing on ChEMBL document CHEMBL3352713, “A new class of salicylic acid derivatives for inhibiting YopH of Yersinia pestis” (Bioorg Med Chem, 2014), this text covers IC50, Selectivity ratio and Ki for ten compounds.

Usually IC50 stands for the point on the concentration scale where inhibition reaches its midpoint. Read a low IC50 as greater potency in that assay. The term Ki denotes a measure of affinity in units of concentration, obtained from inhibition or displacement.

Experiment [1] is described as follows: Inhibition of Yersinia pestis YopH using […] as substrate by spectrophotometry.
The nature of experiment [2]: Selectivity for Yersinia pestis YopH over TCPTP (unknown origin) at 5 nM.
The nature of experiment [3]: Selectivity for Yersinia pestis YopH over PTP1B (unknown origin) at 5 nM.
The nature of experiment [4]: Selectivity for Yersinia pestis YopH over Cdc25A (unknown origin) at 5 nM.
A short description of experiment [5]: Selectivity for Yersinia pestis YopH over VHR (unknown origin) at 5 nM.
The nature of experiment [6]: Selectivity for Yersinia pestis YopH over HePTP (unknown origin) at 5 nM.
A short description of experiment [7]: Selectivity for Yersinia pestis YopH over CD45 (unknown origin) at 5 nM.

In experiment [1], `O=C(CCCCNC(=O)c1ccc(-c2ccc(O)c(C(=O)O)c2)s1)NCc1ccccc1` gave a 50% inhibitory concentration (IC50) of over 200 µM.
As for `O=C(CCCCNC(=O)c1cc(-c2ccc(O)c(C(=O)O)c2)on1)Nc1ccc(N2CCOCC2)cc1`, the IC50 in experiment [1] came to 63 µM. That is a double-digit micromolar value.
Still for that read-out and setting: in the case of `O=C(CCCCNC(=O)c1cc(-c2ccc(O)c(C(=O)O)c2)cs1)Nc1nc2ccccc2s1` it was 39.5 µM; in that of `O=C(CCCCNC(=O)c1cc(-c2ccc(O)c(C(=O)O)c2)cs1)Nc1nc(-c2ccccc2)cs1`, 44.2 µM.
The same measure, in the same setting: then `O=C(CCNC(=O)c1ccc(-c2ccc(O)c(C(=O)O)c2)s1)Nc1nc(-c2ccccc2)cs1`, with over 50 µM; and `O=C(CCCCNC(=O)c1ccc(-c2ccc(O)c(C(=O)O)c2)s1)Nc1nc(-c2ccccc2)cs1`, with 11.1 µM.
The same measure, in the same setting: in the case of `O=C(CCCCNC(=O)c1cc(-c2ccc(O)c(C(=O)O)c2)on1)Nc1nc(-c2ccccc2)cs1` it was 23 µM; in that of `O=C(CCCCNC(=O)c1ccc(-c2ccc(O)c(C(=O)O)c2)s1)Nc1nc2ccccc2s1`, over 20 µM.
Consider `O=C(O)C1=CC(=C(c2ccc(O)c(C(=O)O)c2)c2ccc(O)c(C(=O)O)c2)C=CC1=O` [AURINTRICARBOXYLIC ACID], for which the Selectivity ratio in experiment [2], in experiment [3], in experiment [4], in experiment [5], in experiment [6] and in experiment [7] was 6 each time. Besides, affinity in experiment [1] was put at a Ki of 5 nM.
`O=C(CCCCNC(=O)c1ccc(-c2ccc(O)c(C(=O)O)c2)s1)Nc1ccc(N2CCOCC2)cc1` gave a 50% inhibitory concentration (IC50) in experiment [1] of over 200 µM.
